The text below walks through data of patent US20230277491A1, “PHARMACEUTICAL COMBINATION COMPRISING GLYCOLIC ACID AND L-ALANINE” (priority 2020, published 2023).

The conditions of data set [1]: estimated; cited from earlier work.
In data set [2] the test system is dopaminergic neurons. The experiment in a line: Survival of dopaminergic neurons with paraquat 12.5 μM challenge (Example 5, FIGS. 19, 20). Format: cell-based, mouse. How it is done:
(§1) Dopaminergic neurons were isolated and plated at a concentration of 1.000.000 cells/ml (100 μl/well) in a 96 well plate and cultured in medium with one or more of the various factors indicated, as described in the examples below. The survival of dopaminergic neurons in the presence and absence of various agents of the invention, either with or without paraquat challenge, is shown by the number of TH positive neurons normalized to the control treatment.
Dopaminergic neurons were isolated and plated at a concentration of 1.000.000 cells/ml (100 μl/well) in a 96 well plate. After 3-4 hours incubation at 37° C., 20 μl of medium was removed from each well. (VF=80 μl). Changes in medium and start point of the treatment were on the following day in vitro (DIV). The following protocol was employed to assess the survival of dopaminergic neurons in the presence and absence of various agents of the inventive combination, either with or without paraquat challenge. • DIV.1: Change half of medium N2 (40 μl) with fresh medium N2. • DIV.3: Change half of the medium and start with medium (control) or with medium A containing PB (0.15 mM) and TUDCA (0.5 mM), or with Medium A containing GA (normally 1 mM, 3 mM, or 10 mM) or with Medium A containing GA (1 mM or 3 mM) and PB (0.15 mM) or with Medium A containing GA (5 mM) and TUDCA (0.5 mM) or with Medium A containing PB (0.15 mM). Medium A is N2 medium but without FBS and N2-Supplement. • DIV.5: Second round of control or treatment with different treatments. Half of the medium (40 μl) was replaced by fresh medium A with the different agents. • DIV.7: Paraquat 12.5 μM treatment starts alone or in combination with the treatments explained above. Half of the medium (40 μl) was replaced by fresh medium A with the different treatment combinations or without (control). • DIV.9: Second day of treatment with Paraquat (PQ) 12.5 μM in addition to the other treatments as explained above. • DIV.11: Fixation 2% of PFA during 20 min at 37° C. or overnight at 4° C.
The effect of the different treatments on dopaminergic neurons survival upon exposure to paraquat was assessed through of TH+ neurons after treatment. Briefly, neurons were fixed using 2% paraformaldehyde for immunocytochemical analysis after treatment. Dopaminergic TH^+ neurons per well were identified and counted using an inverted fluorescence microscope (Olympus) under a 20× objective.

For data set [3] the following is noted: human, in vivo. An excerpt: Potential side effects were closely monitored.
The test system of data set [4] is dopaminergic neurons. The data set can be described thus: Survival of dopaminergic neurons with paraquat 25 μM challenge (Example 1, FIG. 1). Format: cell-based, mouse. As for the experimental part:
as §1
Dopaminergic neurons were isolated and plated at a concentration of 1.000.000 cells/ml (100 μl/well) in a 96 well plate. After 3-4 hours incubation at 37° C., 20 μl of medium was removed from each well. (VF=80 μl). Changes in medium and start point of the treatment were done in the following day in vitro (DIV). The following protocol was employed in order to assess the survival of dopaminergic neurons in the presence and absence of various agents of the invention combination, either with or without paraquat challenge. • DIV.1: Change half of medium N2 (40 μl) with fresh medium N2. • DIV.3: Change half of the medium and start with medium (control) or with medium A containing LA (different concentrations) and/or GA (normally 5 mM or 10 mM). Medium A is N2 medium but without FBS and N2-Supplement. • DIV.5: Second round of control or treatment with LA and/or GA. Half of the medium (40 μl) was replaced by fresh medium A with the different agents. • DIV.7: Paraquat 25 μM treatment starts with or without GA and L-alanine. Half of the medium (40 μl) was replaced by fresh medium A with the different treatment combinations or without (control). • DIV.9: Second day of treatment with Paraquat (PQ) 25 μM in addition to the other substances (LA and GA). • DIV.10: Fixation 2% of PFA during 20 min at 37° C. or overnight at 4° C.
Primary mesencephalic neuronal cell cultures were prepared as previously described. Briefly, E14.5 embryos were obtained from C57JBL6 pregnant mice after cervical dislocation. Brain mesencephali were dissected under the microscope and digested with Trypsin-EDTA 0.12% (Life Technologies, USA) for 7 min. The trypsin reaction was then stopped by adding basic medium (BM), containing Neurobasal A medium (Gibco, USA), 1 mg/mL Pen/Strep, 10% FCS, and […] L-Glutamine, and cells were mechanically dissociated using a fire-polished Pasteur pipette. Medium was fully replaced after 5 min, centrifugation at 1200 rpm, aspiring the supernatant and adding 8 mL of fresh BM to the pellet. Concentration of cells in the medium was estimated using a Neubauer chamber and a 100 μL of medium containing 10^6 cells/mL plated per well in a 96-well plate (Greiner Sensoplate, Germany, EU). Then a 20 μL of medium was removed from the well and 24 h later, ⅓ of the media was replaced with fresh BM. […]

The test system of data set [5] is HeLa cells treated with siRNA against PARK-7/DJ-1. The experiment in a line: Calcium imaging on HeLa cells during mitosis after PARK-7/DJ-1 down-regulation. Format: cell-based. Particulars: PARK-7/DJ-1 down-regulated HeLa cells, 5 mM, FIG. 17. How it is done:
HeLa cells were loaded with Fluo-4 AM, a dye used to measure calcium concentration in living cells, as described by the manufacturer and recorded for 4 hours. Graphics show the variations in intracellular calcium concentration during mitosis in WT and cells treated with siRNA against PARK-7/DJ-1 to down-regulate this gene.
HeLa-Kyoto cells stably expressing histone H2B-mCherry and mouse DJ-1 were used. Cells were maintained in DMEM supplemented with 10% fetal bovine serum (FBS), 2 mM GlutaMAX, 100 unit/ml penicillin, 100 μg/ml streptomycin. For esiRNA treatment, cells were plated at a density of 15.000 cells/well in an ibidi 8 well chamber (Cat. no 80826, ibidi, Germany, EU), transfected with different esiRNAs (RLUC as empty vector, hPARK-7 and hKIF11 as positive control) (all esiRNAs were obtained from Eupheria, Germany, EU), and left for 72 hours before performing calcium imaging. esiRNA transfection was performed as follows. esiRNA was diluted in distilled water to a concentration of 20 ng/μl. For each well, two solutions were made: 1. […]
We observed that the Fluo-4 AM dye started to leak out of the cells into the medium after 1.5 hours of imaging. […] Images were analyzed using FIJI Image Analysis Freeware (https://fiji.sc). MFI of the Fluo-4 AM signal within the cell was determined using manually selected ROIs covering the whole cell area for each time-point. […]

The test system of data set [6] is dopaminergic neurons. Particulars: cited from earlier work.
The subject of data set [7] is djr1.1/djr1.2 and glod-4 KO C. elegans. The experiment in a line: Embryonic lethality in C. elegans (percentage of hatched eggs). Format: in vivo. Conditions: worms fed with substance, FIG. 18. How it is done: All C. elegans strains were maintained on NGM agar plates seeded with Escherichia coli NA22 at 15° C.
For data set [8], the system named is DJ-1 RNAi depleted HeLa cells. Conditions: cited from earlier work.
Another data set has as its system HeLa cells. The data set can be described thus: Intracellular calcium, Fluo4-AM loaded HeLa cells, fluorescent plate reader. Format: cell-based. Conditions: FIG. 12. The source says: HeLa cells were loaded with Fluo4-AM and fluorescence was monitored with the help of a fluorescent plate reader. Values are normalized to the initial fluorescent value.
For data set [9] the following is noted: 5 g tablet or powder by mouth; cited from earlier work.

For `OCCOCCO` [diethylene glycol], the minimum toxic dose in data set [1] was 0.14 mg glycolic acid per kg of body weight.

With `O=C(O)CCCc1ccccc1` [PB, 4-Phenylbutyric acid, reference compound], in the data set with dopaminergic neurons [2] (PQ 12.5 μM + 0.15 mM PB, FIG. 19), the “number of TH positive neurons normalized to the control treatment” value came out at 0.72.

In the case of `C[C@H](N)C(=O)O` [LA, L-Alanine], in data set [3], the “prevention of kidney damage or stones, renal or liver disfunction” value is listed as “sufficient to prevent any kidney damage or stones” and the “side effects / function of the kidney or liver” value is recorded as “avoid any unwanted side effects or reductions in function of the kidney or liver”. Besides, in the data set on dopaminergic neurons [4] (0.01 mM LA alone with PQ 25 μM), the “survival of dopaminergic neurons (rescue)” value is “no rescue”.

On to `C[C@@H](O)C(=O)O` [DL, D-(−)-lactic acid], for which the “calcium influx during mitosis” value in data set [5] is given as “able to rescue this phenotype”. For the same compound, the “survival of dopaminergic neurons” value in the data set on dopaminergic neurons [6] is on record as “rescued the survival of dopaminergic neurons”. The “embryonic lethality (percentage of hatched eggs)” value in data set [7] was “rescue of embryonic lethality”. The mitochondrial potential entry in data set [8] is reported as “maintain or rescue mitochondrial potential”. Also, the “intracellular calcium (Fluo4-AM fluorescence normalized to initial value)” value in the data set with HeLa cells is given as “reduce intracellular calcium”.

Consider `C[n+]1ccc(-c2cc[n+](C)cc2)cc1` [PQ, Paraquat, reference compound], for which the “number of TH positive neurons normalized to the control treatment” value with dopaminergic neurons [2] (PQ 12.5 μM alone, FIG. 19) was 0.58; in the data set with dopaminergic neurons [2] (PQ 12.5 μM alone, FIG. 20), 0.44. Further, the “survival of dopaminergic neurons (number of TH positive neurons normalized to the control treatment)” value in the data set with dopaminergic neurons [4] (PQ 25 μM alone) is given as “severe reduction in neuron survival”.

Turning to sodium phenylbutyrate, in data set [9], the “time to metabolism into phenylacetate” value is “within half an hour”, the “time to peak concentration in the bloodstream” value is reported as “within an hour” and the “time until detected in the blood” value is not above 15 min.
